Source: patent US6177438A, “Morphinan derivatives and pharmaceutical use thereof” (priority 1993, dated 2001)
Structures can show the parent of a compound that is named as a salt. Where two headings read alike, the source gives them in different places.

Key:
[1] = tested on: extracted mouse vas deferens preparation; assay: Opioid activity test using an extracted mouse vas deferens preparation (suppression of electrically induced contractions); set-up: species or system male ddy mouse; settings: electrical stimulus 0.1 Hz, 37° C.
Method: (§1) A male ddy mouse was used in this test. The vas deferens extracted from the animal was suspended in a Magnus tube filled with Krebes-Henseleit solution (NaCl 118 mM; KCl 4.7 mM; CaCl2 2.5 mM; KH2 PO4 1.1 mM; NaHCO3 25 mM; Glucose 11 mM) warmed to 37° C. and ventilated with 5% carbon dioxide and 95% oxygen. Electrical stimulus was performed at 0.1 Hz for 5.0 ms by means of ring-shaped platinum electrodes located above and below. Tissue contractions were recorded on a polygraph using an isometric transducer.
(§2) After adequately washing with nutrient solution and the contraction reaction stabilized, the μ agonist, naloxone, the δ agonist, NTI, or the κ agonist, norBNI, was added after which the test compound was again cumulatively added after roughly 20 minutes. The Ke value was calculated using the following calculation formula from the difference in the efficacies of both agonists.

[2] = biological target: T1, κ receptor (Mus musculus, UniProt P33534); assay: Opioid activity test using an extracted mouse vas deferens preparation, Ke with norBNI; set-up: species or system male ddy mouse; settings: for receptor selectivity of agonist (κ): in words; for Ke, norBNI: κ, norBNI added
T1 construct: from tissue; host or cells: mouse (male ddy) vas deferens
T1 sequence (P33534 whole entry): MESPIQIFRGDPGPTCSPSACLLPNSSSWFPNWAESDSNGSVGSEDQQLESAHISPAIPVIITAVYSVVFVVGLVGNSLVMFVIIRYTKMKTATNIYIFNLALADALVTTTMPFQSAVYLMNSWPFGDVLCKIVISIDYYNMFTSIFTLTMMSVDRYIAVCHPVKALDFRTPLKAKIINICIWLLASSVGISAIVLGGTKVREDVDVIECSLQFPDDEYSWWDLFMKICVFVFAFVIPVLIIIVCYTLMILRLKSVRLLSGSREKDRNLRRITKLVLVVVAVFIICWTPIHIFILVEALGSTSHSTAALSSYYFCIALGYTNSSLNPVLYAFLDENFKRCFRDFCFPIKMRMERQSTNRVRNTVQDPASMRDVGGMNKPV
Method: as §1, §2
(§3) Ke=[Conc. of added agonist]/(IC50 ratio-1)
(§4) IC50 ratio=IC50 in the presence of agonist/IC50 in the absence of agonist

[3] = tested on: acetic acid-induced writhing in ddy mice; assay: animal or person; type: in vivo, 5 week old ddy mice; settings: for ED50: s.c. 15 minutes before acetic acid
Method: 5 week old ddy mice were used in this test. After intraperitoneal administration of 0.1 ml of 0.6% aqueous acetic acid per 10 g of body weight, the number of writhing reactions that occurred in 10 minutes starting 10 minutes after administration was evaluated for the indicator. The test drug was administered subcutaneously into the backs of the animals 15 minutes before administration of acetic acid.

[4] = Diuretic action (urine output for 5 hours after physiological saline loading in rats); type: in vivo, male Wistar rats; settings: for ED (200% urine output) / ED (500% urine output): Rattus norvegicus, sc, 5 hours after saline 20 ml/kg p.o.; for ED (200% urine output): dose giving urine output of 200 (non-dosed group = 100); for ED (500% urine output): dose giving urine output of 500 (non-dosed group = 100)
Method: 7-8 week old male Wistar rats were used in this test after prohibiting from drinking water for 1 hour before the start of testing. After discharging any urine accumulated in the bladder by gently stimulating the lower abdomens of the animals, the drug was administered subcutaneously. After 30 minutes, the animals were then forcibly given 20 ml/kg of physiological saline orally. The animals were placed in metabolic cages immediately after administration of the drug (2 animals/cage) and urine output for 5 hours after loading with physiological saline was measured. Drug efficacy was expressed in the form of those doses resulting in urine outputs of 200 and 500, respectively, when the urine output of a non-dosed group was taken to be 100. Those doses were expressed as the ED200 and ED500 values, respectively.

[5] = biological target: T2, μ receptor (Mus musculus, UniProt P42866); assay: Opioid activity test using an extracted mouse vas deferens preparation, Ke with naloxone; set-up: species or system male ddy mouse; settings: naloxone added
T2 construct: naloxone as mu antagonist (printed 'agonist')
T2 sequence (P42866 whole entry): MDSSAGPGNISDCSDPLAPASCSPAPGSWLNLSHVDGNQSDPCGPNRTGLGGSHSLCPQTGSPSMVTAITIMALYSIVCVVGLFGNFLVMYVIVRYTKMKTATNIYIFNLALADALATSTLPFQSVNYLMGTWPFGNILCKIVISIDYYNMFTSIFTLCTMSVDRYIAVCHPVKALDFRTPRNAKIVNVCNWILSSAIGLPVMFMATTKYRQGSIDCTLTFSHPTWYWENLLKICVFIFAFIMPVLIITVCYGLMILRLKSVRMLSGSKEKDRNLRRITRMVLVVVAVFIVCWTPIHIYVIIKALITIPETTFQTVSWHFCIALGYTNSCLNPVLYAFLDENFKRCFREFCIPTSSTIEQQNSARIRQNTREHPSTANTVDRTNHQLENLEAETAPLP
Method: as §1, §2, §3, §4

[6] = biological target: T3, δ receptor (Mus musculus, UniProt P32300); set-up: species or system male ddy mouse
T3 construct: The vas deferens extracted from the animal was suspended in a Magnus tube; from tissue; host or cells: mouse (male ddy) vas deferens
T3 sequence (P32300 whole entry): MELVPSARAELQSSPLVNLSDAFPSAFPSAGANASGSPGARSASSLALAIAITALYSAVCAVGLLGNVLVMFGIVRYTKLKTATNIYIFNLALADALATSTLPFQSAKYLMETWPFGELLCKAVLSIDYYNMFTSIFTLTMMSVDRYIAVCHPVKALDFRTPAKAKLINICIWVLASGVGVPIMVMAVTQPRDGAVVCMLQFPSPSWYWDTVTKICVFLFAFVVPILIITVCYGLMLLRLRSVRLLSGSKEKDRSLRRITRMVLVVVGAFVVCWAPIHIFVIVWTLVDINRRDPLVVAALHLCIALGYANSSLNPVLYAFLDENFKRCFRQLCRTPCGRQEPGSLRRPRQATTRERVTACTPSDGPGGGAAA

[7] = Mus musculus, sc, read-out: ED50
[8] = mouse vas deferens, δ, NTI added

| Compound | IC50 [1] | receptor selectivity of agonist (κ) [2] | Ke, norBNI [2] | ED50 [3, 7] | ED (200% urine output) [4] | ED (500% urine output) [4] | ED50 [3] | Ke, Naloxone [5] | Ke, NTI [6, 8] | Ke, NTI [6] | analgesic activity ([3]; s.c., in words) | Diuretic action (in words) ([4]; s.c., from ED200 values) |
| --- | --- | --- | --- | --- | --- | --- | --- | --- | --- | --- | --- | --- |
| CCCCCCC(=O)N(C)[C@H]1CC[C@@]2(O)[C@H]3Cc4ccc(O)c5c4[C@@]2(CCN3CC2CC2)[C@H]1O5 [Compound 46, 17-cyclopropylmethyl-3,14β-dihydroxy-4,5α-epoxy-6α-(N-methylheptanamido)morphinan.cndot.hydrochloride] | 1.05 nM | selective agonists for κ receptors | 0.440 nM | 0.013 mg/kg |  |  |  |  |  |  |  |  |
| CN(C(=O)/C=C/c1ccco1)[C@@H]1CC[C@@]2(O)[C@H]3Cc4ccc(O)c5c4[C@@]2(CCN3CC2CC2)[C@H]1O5 [Compound 70, 17-cyclopropylmethyl-3,14β-dihydroxy-4,5α-epoxy-6β-[N-methyl-trans-3-(2-furyl)acrylamido]morphinan.cndot.hydrochloride] | 0.545 nM | selective agonists for κ receptors | 0.198 nM | 0.0016 mg/kg |  |  |  |  |  |  |  |  |
| CN(C(=O)CC(=O)c1ccccc1)[C@@H]1CC[C@@]2(O)[C@H]3Cc4ccc(O)c5c4[C@@]2(CCN3CC2CC2)[C@H]1O5 [Compound 103, 17-cyclopropylmethyl-3,14β-dihydroxy-4,5α-epoxy-6β-(N-methylbenzoylacetamido)morphinan.cndot.tartrate] | 11 nM | selective agonists for κ receptors | 0.657 nM | 0.069 mg/kg | 0.0827 mg/kg | 5.65 mg/kg |  |  |  |  |  |  |
| CN(C(=O)CC(=O)c1ccccc1)[C@H]1CC[C@@]2(O)[C@H]3Cc4ccc(O)c5c4[C@@]2(CCN3CC2CC2)[C@H]1O5 [Compound 98, 17-cyclopropylmethyl-3,14β-dihydroxy-4,5α-epoxy-6α-(N-methylbenzoylacetamido)morphinan.cndot.tartrate] | 1.3 nM | selective agonists for κ receptors | 1.35 nM |  | 0.0065 mg/kg | 0.206 mg/kg | 0.0068 mg/kg |  |  |  |  |  |
| Cc1cccc(C#CC(=O)N(C)[C@@H]2CC[C@@]3(O)[C@H]4Cc5ccc(O)c6c5[C@@]3(CCN4CC3CC3)[C@H]2O6)c1.Cl [Compound 172, 17-cyclopropylmethyl-3,14β-dihydroxy-4,5α-epoxy-6β-[N-methyl-3-(3-methylphenyl)propiolamido]morphinan hydrochloride] |  | selective agonists for κ receptors | 0.163 nM | 0.0079 mg/kg | 0.00323 mg/kg | 3.03 mg/kg |  | 16.16 nM | 17.57 nM |  |  |  |
| CN(C(=O)/C=C/c1ccc(Br)cc1)[C@@H]1CC[C@@]2(O)[C@H]3Cc4ccc(O)c5c4[C@@]2(CCN3CC2CC2)[C@H]1O5 [Compound 156, 17-cyclopropylmethyl-3,14β-dihydroxy-4,5α-epoxy-6β-(N-methyl-4-bromocinnamamido)morphinan hydrobromide] |  | selective agonists for κ receptors | 0.091 nM | 0.0056 mg/kg | 0.00545 mg/kg | 0.355 mg/kg |  |  |  |  |  |  |
| CN(C(=O)/C=C/c1ccsc1)[C@H]1CC[C@@]2(O)[C@H]3Cc4ccc(O)c5c4[C@@]2(CCN3CC2CC2)[C@H]1O5 [Compound 91, 17-cyclopropylmethyl-3,14β-dihydroxy-4,5α-epoxy-6α-[N-methyl-trans-3-(3-thienyl)acrylamido]morphinan.cndot.tartrate] | 0.378 nM | selective agonists for κ receptors | 0.699 nM | 0.019 mg/kg | 0.0094 mg/kg | 0.96 mg/kg |  |  | 450 nM |  |  |  |
| CCCCCC(=O)N(C)[C@@H]1CC[C@@]2(O)[C@H]3Cc4ccc(O)c5c4[C@@]2(CCN3CC2CC2)[C@H]1O5 [Compound 62, 17-cyclopropylmethyl-3,14β-dihydroxy-4,5α-epoxy-6β-(N-methylhexanamido)morphinan.cndot.tartrate] | 14.7 nM | selective agonists for κ receptors | 0.203 nM | 0.077 mg/kg | 0.101 mg/kg | 7.04 mg/kg |  |  | 90.2 nM |  |  |  |
| CN(C(=O)/C=C/c1cccc(Br)c1)[C@@H]1CC[C@@]2(O)[C@H]3Cc4ccc(O)c5c4[C@@]2(CCN3CC2CC2)[C@H]1O5 [Compound 151, 17-cyclopropylmethyl-3,14β-dihydroxy-4,5α-epoxy-6β-(N-methyl-3-bromocinnamamido)morphinan hydrobromide] |  | selective agonists for κ receptors | 0.028 nM | 0.0041 mg/kg | 0.00445 mg/kg | 1.56 mg/kg |  | 0.94 nM |  | 1.65 nM |  |  |
| CN(C(=O)/C=C/c1cccc(Cl)c1)[C@@H]1CC[C@@]2(O)[C@H]3Cc4ccc(O)c5c4[C@@]2(CCN3CC2CC2)[C@H]1O5 [Compound 154, 17-cyclopropylmethyl-3,14β-dihydroxy-4,5α-epoxy-6β-(N-methyl-3-chlorocinnamamido)morphinan hydrochloride] |  | selective agonists for κ receptors | 0.133 nM | 0.001 mg/kg | 0.00214 mg/kg | 0.27 mg/kg |  | 43.1 nM |  | 31.5 nM | particularly strong analgesic activity |  |
| CN(C(=O)Cc1ccc(F)c(F)c1)[C@H]1CC[C@@]2(O)[C@H]3Cc4ccc(O)c5c4[C@@]2(CCN3CC2CC2)[C@H]1O5 [Compound 105, 17-cyclopropylmethyl-3,14β-dihydroxy-4,5α-epoxy-6α-(N-methyl-3,4-difluorophenylacetamido)morphinan.cndot.hydrochloride] |  |  |  | 0.098 mg/kg | 0.019 mg/kg | 3.3 mg/kg |  |  |  |  |  |  |
| CN(C(=O)/C=C/c1ccc(Cl)cc1)[C@@H]1CC[C@@]2(O)[C@H]3Cc4ccc(O)c5c4[C@@]2(CCN3CC2CC2)[C@H]1O5 [Compound 152, 17-cyclopropylmethyl-3,14β-dihydroxy-4,5α-epoxy-6β-(N-methyl-4-chlorocinnamamido)morphinan hydrochloride] |  | selective agonists for κ receptors | 0.039 nM |  | 0.00071 mg/kg | 0.00953 mg/kg | 0.0038 mg/kg | 17.5 nM |  | 35.1 nM |  | extremely strong diuretic action |
| CN(C(=O)/C=C/c1cccc(F)c1)[C@@H]1CC[C@@]2(O)[C@H]3Cc4ccc(O)c5c4[C@@]2(CCN3CC2CC2)[C@H]1O5 [Compound 102, 17-cyclopropylmethyl-3,14β-dihydroxy-4,5α-epoxy-6β-(N-methyl-3-fluorocinnamamido)morphinan.cndot.tartrate] | 1.6 nM | selective agonists for κ receptors | 2.37 nM | 0.0019 mg/kg | 0.0014 mg/kg | 0.0154 mg/kg |  |  | 276 nM |  |  |  |
| COc1cccc(C#CC(=O)N(C)[C@H]2CC[C@@]3(O)[C@H]4Cc5ccc(O)c6c5[C@@]3(CCN4CC3CC3)[C@H]2O6)c1.O=C(O)C(O)C(O)C(=O)O [Compound 184, 17-cyclopropylmethyl-3,14β-dihydroxy-4,5α-epoxy-6α-[N-methyl-3-(3-methoxyphenyl)propiolamido]morphinan tartrate] |  |  |  | 0.0043 mg/kg | 0.00444 mg/kg | 0.0326 mg/kg |  |  |  |  |  |  |
